ChEMBL document CHEMBL6127038, “How many organic small molecules might be used to treat COVID-19? From natural products to synthetic agents” (Eur J Med Chem, 2024)

Test system: SARS-CoV-2
Experiment: Antiviral activity against SARS CoV-2 infected in HEK293 cells overexpressing hACE2 assessed as inhibition of viral infection
Type: functional, organism-based
Conditions: Severe acute respiratory syndrome coronavirus 2, HEK293

In the case of `NC(=O)CC[C@H](NC(=O)[C@H](Cc1ccc(O)cc1)NC(=O)[C@H](Cc1ccccc1)N1CCN(C(=O)[C@H](CC(=O)O)NC(=O)[C@@H](N)CCC(=O)O)CC1=O)C(N)=O`, the IC50 is reported as 15 µM.
